Source: patent US20230193341A1, “EXPRESSION SYSTEMS, RECOMBINANT CELLS AND USES THEREOF” (Selexis SA, priority 2018, published 2023)

Legend:
Assay type in all cases: cell-based, Chinese hamster
DTE cells = assay: Bezafibrate treatment of DTE CHO cells: target gene induction, production and fitness
Protocol: (§1) Antibiotic-selected DTE (Infliximab) cells were stably transfected with mouse PPARα or with an empty vector. Analyses of gene expression, IgG titer and cell viability were performed comparing DTE clone with empty vector cell and PPARα overexpressing cells (PPARα_OE). (A) Gene expression of PPARα targets, PPARα and IgG (qRT-PCR) in none-treated cells or cells treated with Bezafibrate (BEZA). Bezafibrate was added at 10 mM at day 1 of the fed-batch culture. RNA was extracted at day 6 of the fed-batch culture. Infliximab IgG specific productivity (B) and cell viability (C) are illustrated in non-selective or B5-starving media. Cells were cultured in 12 well-plate at a starting amount of 2*105 cell/ml in non-selective or B5 starving medium for 5 days, then transferred in non-selective media. IgG specific productivity (PCD) was then measured over 3 days of culture in non-selective media. Each measurement is the result of three independent cultures. Statistics: * P≤0.05 and ** P≤0.02 (t-test; 1 sided; unpaired sample, unequal variance).
(§2) Growth and IgG secretion performances in fed-batch culture were performed according to Le Fourn et al., 2013, with the following changes: IgG producing clone stably transfected for the expression of MIPs were seeded at 300′000 cells/ml in 5 mL culture medium in falcon of 50 mL. Viable cell density and IgG titer (g/L) were evaluated after 3, 6, 8, 9, 10 and 13 days.
(§3) For quantitative PCR (qPCR) analysis, total RNA was extracted from […] and reverse transcribed into cDNA using the GoScript Reverse transcription System (Promega). Transcripts accumulation was quantified by qPCR using the LightCycler© 480 SYBR Green I Master and the LightCycler 480 II instrument (Roche). Transcript levels were normalized to that of SDHA housekeeping gene.

ETE (Trastuzumab) cells = assay: Fed-batch culture of ETE (Trastuzumab) CHO cells: IgG production and cell survival
Protocol: (§4) (A) ETE clone (Trastuzumab) non-treated (Control) or treated with 10 mM Bezafibrate PPARα ligand after […] of fed-batch culture (+Bezafibrate). Candidate gene expression were quantified at day 6 by RT-qPCR. (B) ETE cells treated with 10 mM Bezafibrate after 1-day fed-batch, and IgG titer measured after 10 days. Data are means±SE from four independent experiments. * P≤0.05 and ** P≤0.02 (t-test; 2 sided; unpaired sample, unequal variance).
The percentage of fluorescent cells and the fluorescence intensity of GFP positive cells were determined by flow cytometry analysis using a CyAn ADP flow cytometer (BECKMAN COULTER). Immunoglobulin concentrations in cell culture supernatants were measured by sandwich ELISA. GFP, IgG1Lc, IgG1Hc and MIP transcript accumulation was confirmed by RT-quantitative PCR assays before analyses.
as §2

PPAR target genes = assay: RT-qPCR of candidate / PPAR target gene expression in ETE (Trastuzumab) clone in fed-batch culture; settings: 10 mM Bezafibrate added after 3 days of fed-batch, RT-qPCR at day 6 (FIG. 6A)
Protocol: as §4, §2, §3

exogenous PPARα = assay: DTE (Infliximab) cells stably overexpressing mouse PPARα (PPARα_OE): gene expression (qRT-PCR) and IgG productivity
Protocol: as §1
For quantitative PCR (qPCR) analysis, total RNA was extracted from […] and reverse transcribed into cDNA using the GoScript Reverse transcription System (Promega). Transcripts accumulation was quantified by qPCR using the LightCycler© 480 SYBR Green I Master and the LightCycler 480 II instrument (Roche). […]

CC(C)(Oc1ccc(CCNC(=O)c2ccc(Cl)cc2)cc1)C(=O)O [Bezafibrate, 2-[4-[2-(4-chlorobenzamido)ethyl]phenoxy]-2-methylpropanoic acid]
cell production and fitness (DTE cells): the cell production and fitness weren't improved
induction of PPAR target genes (DTE cells): the same target genes are induced
cell division, viability and recombinant protein production (DTE cells; increased bezafibrate concentration, data not shown): doesn't show any beneficial effect
recombinant protein (IgG titer) at the end of the fed-batch (ETE (Trastuzumab) cells; ETE cells, 10 mM Bezafibrate added at day 1 of fed-batch, IgG titer after 10 days (FIG. 6B)): beneficial for recombinant protein
cell division, viability and recombinant protein production (ETE (Trastuzumab) cells; ETE cells, increased bezafibrate concentration, data not shown): doesn't show any beneficial effect
cell survival under starvation stress during the fed-batch process (ETE (Trastuzumab) cells; addition at day 3 of the fed-batch, data not shown): significantly improved cell survival
IgG production (ETE (Trastuzumab) cells; addition at day 3 of the fed-batch, normal fed-batch conditions of feeding): no improvement of IgG production
expression of B5-target Slc22a14 (PPAR target genes): activated
expression of Cyp4a14 (PPAR target genes): not induced
expression of PPAR target genes HmgCs2, Acot1, DBI1, AscI1 and RXR nuclear receptor (PPAR target genes): induces PPAR target genes
IgG productivity (exogenous PPARα; PPARα_OE DTE (Infliximab) cells with bezafibrate (FIG. 7B)): higher IgG productivity
transcription of PPAR-target genes, RXR nuclear factor and IgG light and heavy chains (exogenous PPARα; PPARα_OE DTE (Infliximab) cells, Bezafibrate 10 mM at day 1, RNA at day 6 of fed-batch (FIG. 7A)): induced the transcription of PPAR-target genes
